Source: PubChem BioAssay AID1963839 (Molecular Pharmacology Branch, DTP, NCI, 2024)

System: 817829-284-R-J1-PDC complex spheroid viability
Assay: Anticancer human tumor 817829-284-R-J1-PDC patient-derived colon adenocarcinoma cell line growth inhibition [POLQ]
Conditions: for IC50: curve of first compound; for viability, T/C: stronger effect = lower value
In short: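 Patient-derived tumour cells were co-cultured with HUVEC and mesenchymal stem cells as multicellular spheroids at 37 °C. They were treated with POLQ inhibitors (novobiocin, ART-558, RP6685) alone or combined with other agents. Top concentrations were at or near clinical Cmax (otherwise 10 microM; SN-38 at 1 microM), decreasing in half-log steps.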

[1] = second compound 0.0316 µM, first compound 0.0316 µM
[2] = second compound 0.0316 µM, first compound 0.1 µM
[3] = second compound 0.0316 µM, first compound 0.316 µM
[4] = second compound 0.0316 µM, first compound 1 µM
[5] = second compound 0.0316 µM, first compound 3.16 µM
[6] = second compound 0.0316 µM, first compound 10 µM
[7] = second compound 0.1 µM, first compound 0.0316 µM
[8] = second compound 0.1 µM, first compound 0.1 µM
[9] = second compound 0.1 µM, first compound 0.316 µM
[10] = second compound 0.1 µM, first compound 1 µM
[11] = second compound 0.1 µM, first compound 3.16 µM
[12] = second compound 0.1 µM, first compound 10 µM
[13] = second compound 0.316 µM, first compound 0.0316 µM
[14] = second compound 0.316 µM, first compound 0.1 µM
[15] = second compound 0.316 µM, first compound 0.316 µM
[16] = second compound 0.316 µM, first compound 1 µM
[17] = second compound 0.316 µM, first compound 3.16 µM
[18] = second compound 0.316 µM, first compound 10 µM
[19] = second compound 1 µM, first compound 0.0316 µM
[20] = second compound 1 µM, first compound 0.1 µM
[21] = second compound 1 µM, first compound 0.316 µM
[22] = second compound 1 µM, first compound 1 µM
[23] = second compound 1 µM, first compound 3.16 µM
[24] = second compound 1 µM, first compound 10 µM
[25] = second compound 3.16 µM, first compound 0.0316 µM
[26] = second compound 3.16 µM, first compound 0.1 µM
[27] = second compound 3.16 µM, first compound 0.316 µM
[28] = second compound 3.16 µM, first compound 1 µM
[29] = second compound 3.16 µM, first compound 3.16 µM
[30] = second compound 3.16 µM, first compound 10 µM
[31] = second compound 10 µM, first compound 0.0316 µM
[32] = second compound 10 µM, first compound 0.1 µM
[33] = second compound 10 µM, first compound 0.316 µM
[34] = second compound 10 µM, first compound 1 µM
[35] = second compound 10 µM, first compound 3.16 µM
[36] = second compound 10 µM, first compound 10 µM
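Note: spheroids exposed to compounds for 7 days.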
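Throughout, for viability, T/C: 100% = DMSO vehicle-treated spheroids.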

Compound: O=C(c1cc(Cc2n[nH]c(=O)c3ccccc23)ccc1F)N1CCN(C(=O)C2CC2)CC1 + Cc1cccc(N(C)C(=O)C2C(O)CCN2c2nc(C)cc(C(F)(F)F)c2C#N)c1
- IC50 (second compound 0.0316 µM): 4.01 µM
- IC50 (second compound 0.1 µM): 1.86 µM
- IC50 (second compound 0.316 µM): 2.63 µM
- IC50 (second compound 1 µM): 2.91 µM
- IC50 (second compound 3.16 µM): 3.65 µM
- IC50 (second compound 10 µM): 4.54 µM
- viability, T/C [1]: 75.4%
- viability, T/C [2]: 97.7%
- viability, T/C [3]: 89.7%
- viability, T/C [4]: 69.4%
- viability, T/C [5]: 59.6%
- viability, T/C [6]: 21.8%
- viability, T/C [7]: 84.1%
- viability, T/C [8]: 75.5%
- viability, T/C [9]: 93.3%
- viability, T/C [10]: 60.7%
- viability, T/C [11]: 42.4%
- viability, T/C [12]: 28.9%
- viability, T/C [13]: 119%
- viability, T/C [14]: 61.2%
- viability, T/C [15]: 78.2%
- viability, T/C [16]: 82.7%
- viability, T/C [17]: 44.5%
- viability, T/C [18]: 26.3%
- viability, T/C [19]: 104%
- viability, T/C [20]: 100%
- viability, T/C [21]: 74.2%
- viability, T/C [22]: 66.4%
- viability, T/C [23]: 54.2%
- viability, T/C [24]: 26.6%
- viability, T/C [25]: 108%
- viability, T/C [26]: 111%
- viability, T/C [27]: 81.6%
- viability, T/C [28]: 64.4%
- viability, T/C [29]: 60.3%
- viability, T/C [30]: 30.2%
- viability, T/C [31]: 115%
- viability, T/C [32]: 87.6%
- viability, T/C [33]: 104%
- viability, T/C [34]: 76.2%
- viability, T/C [35]: 64.6%
- viability, T/C [36]: 25.2%

Compound: O=c1[nH]cc(F)c(=O)[nH]1 + Cc1cccc(N(C)C(=O)C2C(O)CCN2c2nc(C)cc(C(F)(F)F)c2C#N)c1
- IC50 (second compound 0.0316 µM): 1.98 µM
- IC50 (second compound 0.1 µM): 3.12 µM
- IC50 (second compound 0.316 µM): > 10 µM
- IC50 (second compound 1 µM): 3.1 µM
- IC50 (second compound 3.16 µM): 3.65 µM
- IC50 (second compound 10 µM): 2.53 µM
- viability, T/C [1]: 98.2%
- viability, T/C [2]: 119%
- viability, T/C [3]: 68.2%
- viability, T/C [4]: 72.5%
- viability, T/C [5]: 34.8%
- viability, T/C [6]: 38.9%
- viability, T/C [7]: 91.4%
- viability, T/C [8]: 126%
- viability, T/C [9]: 110%
- viability, T/C [10]: 75.4%
- viability, T/C [11]: 55.9%
- viability, T/C [12]: 42.1%
- viability, T/C [13]: 92.1%
- viability, T/C [14]: 98%
- viability, T/C [15]: 106%
- viability, T/C [16]: 74.4%
- viability, T/C [17]: 55.4%
- viability, T/C [18]: 45.8%
- viability, T/C [19]: 72.5%
- viability, T/C [20]: 118%
- viability, T/C [21]: 98.8%
- viability, T/C [22]: 75.1%
- viability, T/C [23]: 52.7%
- viability, T/C [24]: 39.9%
- viability, T/C [25]: 89.9%
- viability, T/C [26]: 112%
- viability, T/C [27]: 102%
- viability, T/C [28]: 77%
- viability, T/C [29]: 54.7%
- viability, T/C [30]: 36.3%
- viability, T/C [31]: 101%
- viability, T/C [32]: 91.8%
- viability, T/C [33]: 94.1%
- viability, T/C [34]: 60.4%
- viability, T/C [35]: 52%
- viability, T/C [36]: 42.6%
